Series [1] deals with XPO1. As to the kind of experiment: XPO1 inhibition activity. The class given is biochemical.
Series [2] relates to Jurkat cells. The series can be described thus: MTS cell viability assay, Jurkat. The series is classed as cell-based, human. Particulars: 72 hours, read-out: IC50 (± S.D.), Jurkat. The procedure: Cryopreserved tumor cells obtained from sterile lymph node biopsy samples from dogs with diffuse large B cell lymphoma (DLBCL) were cultured with 100 ng/mL of megaCD40L (Enzo Life Science, Plymouth Meeting, PA) as previously described, [27]. The human T-cell leukemia cell line, Jurkat, was from the American Type Culture Collection (ATCC, Manassas, VA) and cultured in RPMI1640 medium (Gibco/BRL, Grand Island, NY) containing 10% fetal bovine serum (FBS; Atlas Biologicals, Fort Collins, CO), 2-mercaptoethanol (Gibco/BRL), HEPES, L-glutamine, sodium pyruvate (Mediatech Inc., Manassas, VA), non-essential amino acids (Sigma Aldrich, St. Louis, MO), and Primocin (Invivogen, San Diego, CA). The canine DLBCL cell line CLBL1 obtained from Dr. Barbara Rütgen (University of Vienna, Austria), [29] and human DLBCL cell lines OCI-Ly3 [30], [31] and OCI-Ly10 [32] obtained from Dr. Anne Novak (Mayo Clinic Cancer Center, Rochester, MN) were cultured in complete Iscove’s Modified Dulbecco’s medium (IMDM) containing 20% FBS, L-glutamine, and Primocin. All cells were maintained at 37°C in a humidified 5% CO2 atmosphere. The following additional canine tumor cell lines were used to evaluate response to SINE compounds: C2, mast cell tumor line provided by Dr. George Caughey, UCSF, San Francisco, CA [33]; OSA16, osteosarcoma cell line, provided by Dr. Jaime Modiano, UM, Minneapolis, MN [34]; and 323610-3, malignant melanoma cell line, provided by Dr. Michael Kent, UCD, Davis, CA [35]. […]
(§1) Cell viability for lymphoid lines was determined by the MTS (3-(4, 5-dimethylthiazol-2-yl)-5-(3-carboxymethoxyphenyl)-2-(4-sulfophenyl)-2H-tetrazolium) assay using CellTiter 96® AQueous One Solution Cell Proliferation Assay Kit (Promega, Madison, WI). […] After 72 hours, 20 µL of MTS solution was added to each well and cells were incubated for another 4 hours before measuring absorbance at 490 nm using a Wallac Victor 1420 Multilabel Counter (Perkin Elmer, Waltham, MA). The IC50 of SINE was calculated using Prism 6 software (GraphPad Software, Inc., La Jolla, CA).

In series [3] the test system is primary canine DLBCL cells. The series can be described thus: MTS cell viability assay, primary canine DLBCL samples. The series is classed as cell-based. On the procedure: Cryopreserved tumor cells obtained from sterile lymph node biopsy samples from dogs with diffuse large B cell lymphoma (DLBCL) were cultured with 100 ng/mL of megaCD40L (Enzo Life Science, Plymouth Meeting, PA) as previously described, [27]. The human T-cell leukemia cell line, Jurkat, was from the American Type Culture Collection (ATCC, Manassas, VA) and cultured in RPMI1640 medium (Gibco/BRL, Grand Island, NY) containing 10% fetal bovine serum (FBS; Atlas Biologicals, Fort Collins, CO), 2-mercaptoethanol (Gibco/BRL), HEPES, L-glutamine, sodium pyruvate (Mediatech Inc., Manassas, VA), non-essential amino acids (Sigma Aldrich, St. Louis, MO), and Primocin (Invivogen, San Diego, CA). The canine DLBCL cell line CLBL1 obtained from Dr. Barbara Rütgen (University of Vienna, Austria), [29] and human DLBCL cell lines OCI-Ly3 [30], [31] and OCI-Ly10 [32] obtained from Dr. Anne Novak (Mayo Clinic Cancer Center, Rochester, MN) were cultured in complete Iscove’s Modified Dulbecco’s medium (IMDM) containing 20% FBS, L-glutamine, and Primocin. All cells were maintained at 37°C in a humidified 5% CO2 atmosphere. The following additional canine tumor cell lines were used to evaluate response to SINE compounds: C2, mast cell tumor line provided by Dr. George Caughey, UCSF, San Francisco, CA [33]; OSA16, osteosarcoma cell line, provided by Dr. Jaime Modiano, UM, Minneapolis, MN [34]; and 323610-3, malignant melanoma cell line, provided by Dr. Michael Kent, UCD, Davis, CA [35]. All cell lines were cultured in complete RPMI media containing 10% FBS, antibiotic/antimycotic, HEPES, sodium pyruvate, nonessential amino acids and Glutamax (media supplements from Gibco).
Cell viability for lymphoid lines was determined by the MTS (3-(4, 5-dimethylthiazol-2-yl)-5-(3-carboxymethoxyphenyl)-2-(4-sulfophenyl)-2H-tetrazolium) assay using CellTiter 96® AQueous One Solution Cell Proliferation Assay Kit (Promega, Madison, WI). Briefly, for lymphoid cell lines, 5×10^4 cells (or 1×10^5 primary DLBCL cells) were cultured in 100 µL of complete medium in 96-well plates in the presence of SINE compounds. After 72 hours, 20 µL of MTS solution was added to each well and cells were incubated for another 4 hours before measuring absorbance at 490 nm using a Wallac Victor 1420 Multilabel Counter (Perkin Elmer, Waltham, MA). The IC50 of SINE was calculated using Prism 6 software (GraphPad Software, Inc., La Jolla, CA).
Background: Tetrazolium dyes change colour on reduction, which living cells bring about.

Series [4] has as its system OCI-Ly10 DLBCL cells. The series can be described thus: MTS cell viability assay, OCI-Ly10. The series is classed as cell-based, human. To be noted: 72 hours, read-out: IC50 (± S.D.), OCI-Ly10. On the procedure:
(§2) Cryopreserved tumor cells obtained from sterile lymph node biopsy samples from dogs with diffuse large B cell lymphoma (DLBCL) were cultured with 100 ng/mL of megaCD40L (Enzo Life Science, Plymouth Meeting, PA) as previously described, [27]. The human T-cell leukemia cell line, Jurkat, was from the American Type Culture Collection (ATCC, Manassas, VA) and cultured in RPMI1640 medium (Gibco/BRL, Grand Island, NY) containing 10% fetal bovine serum (FBS; Atlas Biologicals, Fort Collins, CO), 2-mercaptoethanol (Gibco/BRL), HEPES, L-glutamine, sodium pyruvate (Mediatech Inc., Manassas, VA), non-essential amino acids (Sigma Aldrich, St. Louis, MO), and Primocin (Invivogen, San Diego, CA). […]
as §1

Series [5] has as its system OCI-Ly3 DLBCL cells. As to the kind of experiment: MTS cell viability assay, OCI-Ly3. The series is classed as cell-based, human. To be noted: 72 hours, read-out: IC50 (± S.D.), OCI-Ly3. The procedure:
as §2, §1

Series [6] is described as follows: Oral bioavailability. The class given is in vivo. To be noted: in vivo, po.
Where [7] appears, read: primary sample #5, 72 hours, read-out: IC50, DLBCL#5.

Where two headings read alike, the source gives them in different places.

In the case of `COc1cc(-c2ncn(/C=C/C(=O)OC(C)C)n2)cc(C(F)(F)F)c1` [KPT-185 trans], the “XPO1 inhibition activity, fold less than the cis-isomer” value in series [1] is approximately 100 fold. For the same molecule, the 50% inhibitory concentration (IC50) in series [2] and in series [3] (setting [7]) was more than 1000 nM in each case.
In the case of `COc1cc(-c2ncn(/C=C\C(=O)OC(C)C)n2)cc(C(F)(F)F)c1` [KPT-185], the IC50 – broadly, the concentration that inhibits the measured activity by half – stood at 246 nM in series [4]; 24.1 nM in series [5]; 8.7 ± 0.7 nM in series [2]; 13.3 ± 6.2 nM in series [3] (mean of primary canine DLBCL samples (n = 6), 72 hours, read-out: IC50 (± S.D.), Canine DLBCLs); 13.1 nM in series [3] (primary sample #1, 72 hours, read-out: IC50, DLBCL#1); 9 nM in series [3] (primary sample #2, 72 hours, read-out: IC50, DLBCL#2). The IC50 in series [3] (primary sample #3, 72 hours, read-out: IC50, DLBCL#3) was 12.2 nM; in series [3] (primary sample #4, 72 hours, read-out: IC50, DLBCL#4), 4.9 nM; in series [3] (setting [7]), 21.6 nM. Also, the oral bioavailability result in series [6] was “limited oral bioavailability”.

(Values after publication PMC3913620, “Preclinical Evaluation of the Novel, Orally Bioavailable Selective Inhibitor of Nuclear Export (SINE) KPT-335 in Spontaneous Canine Cancer: Results of a Phase I Study” (PLoS ONE, 2014).)
